# d = 2'-deoxy (DNA); r = 2'-OH (RNA)
# Columns and labels:
# LNCaP-Mock cells = assay: Crystal violet cell growth assay, LNCaP-Mock cells; assay type: cell-based, human
# Method: In brief, cells were seeded in each well of 12-well microtiter plates (30 000 to 50 000 cells per well) and allowed to attach overnight. To study the effect of TCTP downregulation on apoptosis induced by docetaxel, PC-3 cells were transiently transfected the day after seeding with 5 nM of TCTP siRNA for 48 h or 100 nM of TCTP ASO for 72 h. Cells were then treated with 50 nM of docetaxel and MTT assays were performed after 24 h. To assess the effect of TCTP downregulation on Hsp27 cytoprotection, LNCaP-Mock and -Hsp27 cells were transiently transfected the day after seeding with 5 nM of TCTP siRNA for 48 h. The down- or upregulation of TCTP effect on LNCaP and C4-2 cell viability was realized after transient transfections with 100 nM of TCTP ASO or 0.02 μg/μl of pDEST-TCTP for 72 h and 48 h respectively. Cells were then treated with 1 nM of docetaxel in serum-free media (mimics androgen withdrawal in vitro) and crystal violet assays were performed the day after. Each assay was performed in triplicate.
# In order to study consequences of TCTP inhibition on cell survival after combined androgen withdrawal and docetaxel-chemotherapy treatment, cell viability of LNCaP-Mock and -Hsp27 was determined using crystal violet dye after 24 h treatment with 1 nM of docetaxel in serum-free media (mimics androgen withdrawal in vitro). […]
# TCTP = TCTP protein level by Western blot in PC-3 cells treated with siRNA or ASO; assay type: cell-based, human
# Method: Western Blot analysis was performed as described previously (Rocchi et al., 2004, Cancer Res. 64:6595-602) with 1:5000 rabbit anti-Hsp27 polyclonal antibody (Assay Designs, Villeurbanne, France), 1:2000 rabbit TCTP polyclonal antibody (Abcam Inc., Cambridge, UK), 1:250 rabbit anti-MSL1v1 polyclonal antibody (Abcam Inc.), 1:500 mouse anti-ubiquitin monoclonal antibody (Santa Cruz Biotechnology Inc., Heidelberg, Germany) or 1:1000 rabbit anti-caspase-3 polyclonal antibody (Cell Signalling Technology Inc., Danvers, USA). Loading levels were normalized using 1:5000 rabbit anti-glyceraldehyde-3-phosphate dehydrogenase polyclonal (Abcam Inc.) or 1:2500 mouse anti-vinculine monoclonal antibodies (Sigma Chemical Co., St Louis, Mo., USA). […]
# To determine whether the inhibition of TCTP expression affects CR progression in vitro, ASO- or siRNA-induced inhibition of TCTP expression was determined by Western blot analysis. […] Total RNA was extracted and TCTP levels were analyzed by qRT-PCR. After the normalization of TCTP mRNA with 18S rRNA levels, results were analysed with the 2(-Delta Delta C(T)) Method (FIG. 5A). Each sample was analyzed in triplicate. ** differs from PC-3 transfected with control-siRNA (P≤0.01) and *** with ASO control (P≤0.001) using Statview software.
# PC-3 tumors = assay: PC-3 tumor growth in vivo in athymic nude mice
# Method: Approximately 3.10^6 PC-3 cells and 10.10^6 LNCaP cells were inoculated subcutaneously with 0.1 mL of Dulbecco's Modified Eagle's Medium (Invitrogen) supplemented with 10% FCS for PC-3 or with 0.1 mL of Matrigel (BD Biosciences Discovery Labware) for LNCaP in the flank region of 4-week-old male athymic nude mice (Charles River, L'Arbresle, France) via a 23-gauge needle. When PC-3 tumors reached 50 mm^3, usually 3 to 4 weeks after injection, mice were randomly selected for treatment with TCTP ASO alone, scrambled ASO alone, TCTP ASO plus docetaxel or scrambled ASO plus docetaxel. Mice bearing LNCaP tumors between 200 and 300 mm^3 in volume were castrated via scrotal approach and randomly assigned to a treatment arm. Mice were treated beginning 1 week after castration with TCTP ASO or control ASO alone and serum PSA measurements were done weekly. For both experiments, each experimental group consisted in 10 mice and the tumor volume measurements were performed once weekly and calculated by the formula length×width×depth×0.5236 (Gleave et al., 1999, Clin Cancer Res 5:2891-8). After randomization, 10 mg/kg TCTP or scrambled ASO was injected intraperitoneally (i.p) once daily for 60 days for ASO monotherapy groups and 90 days for the ASO plus docetaxel groups. A total of 35 mg/kg docetaxel was administrated i.p. three times per week from days 7 to 14. Tumor volume measurements were performed once weekly and calculated by the formula length×width×depth×0.5236 (20). Data points were expressed as average tumor volume levels +/−standard error (SE). All animal procedures were performed in accordance with protocols approved by French laws and the European directives and with appropriate institutional certification.
# We next evaluated the effects of TCTP ASO treatment on the growth of PC-3 tumors in vivo (FIG. 8). Male nude mice bearing PC-3 tumors (50 mm^3) were randomly selected for TCTP ASO versus scrambled ASO and 10 mg/kg ASO were administrated once daily by i.p. injection for […]. From days 7 to 14, 30 mg/kg of docetaxel was administrated i.p. 3 days in the week. Mean tumor volume was similar in all groups before therapy.
# TCTP inhibition was evaluated in nude mice xenografted with the PC3 CRPC cell line. The animals were treated in an everyday basis and for a period of two months by peritoneal injection of ASO or control TCTP once their tumor volume was 200-300 mm^3. In order to evaluate the additive anticancer activity of ASO TCTP, mice were treated with docetaxel (33 mg/kg) by peritoneal injection three times per week for one week prior to ASO or control TCTP injections. For all experiments, the average tumor volume was measured once a week.
Substance,"reduction in LNCaP-Mock cell growth rate (LNCaP-Mock cells; siRNA 5 nM alone, compared with control) [%]","reduction in LNCaP-Mock cell growth rate (LNCaP-Mock cells; siRNA plus 1 nM docetaxel in serum-free medium, 24 h) [%]",inhibition of TCTP protein (TCTP; siRNA at 5 nM),inhibition of TCTP protein (TCTP; ASO at 100 nM),"tumor volume (PC-3 tumors; PC3 xenografted nude mice, 10th week of treatment) [mm^3]","tumor volume maintained (PC-3 tumors; PC3 xenografted nude mice, docetaxel (33 mg/kg) followed by ASO TCTP) [mm^3]","reduction of mean PC-3 tumor volume (PC-3 tumors; TCTP ASO plus docetaxel vs scrambled control, 13 weeks after initiation of treatment) [%]",harvested tumors smaller in appearance (PC-3 tumors; after two weeks of i.p. treatment) [%],"general toxicity (animal behavior, body weight) (PC-3 tumors; mice bearing PC-3 tumors, body weight t0 vs tf)","reduction of PC-3 tumor volume (PC-3 tumors; monotherapy 10 mg/kg i.p. once daily, days 56 to 70, vs scrambled control) [%]","cleaved caspase-3 fragments in harvested PC-3 tumors (PC-3 tumors; western blotting, i.p. delivery)"
"5′-AACCCGUCCGCGAUCUCCCdGdG-3′ (AACCCGUCCGCGAUCUCCCGG; siRNA; sugars from the 5' end r19 d2, backbone not given here) [TCTP siRNA, from Qiagen]",40,50,significant inhibition,–,–,–,–,–,–,–,–
"5′-ACCAATGAGCGAGTCATCAA-3′ (phosphorothioate backbone, further chemistry not given here) [ASO10]",–,–,–,significant inhibition,500,100,< 70,50,did not cause general toxicity,50,presence of cleaved caspase-3 fragments

# Reference: patent US10105384B2, “Nucleic acids targeting TCTP for use in the treatment of chemo- or hormone-resistant cancers” (INSTITUT NATIONAL DE LA SANTE ET DE LA RECHERCHE MEDICALE …, priority 2010, dated 2018)
